Data taken from patent US12414958B2, “Medicament and use thereof for treating bacterial infections involving biofilm” (Debiopharm International S.A., priority 2019, dated 2025).

Test system: ATCC 43300 MRSA strain
Experiment: In vivo murine model of catheter associated infection, 24 h and 72 h MRSA biofilms
Design: species or system Staphylococcus aureus
Settings: for Log10 CFU/g of catheter (D 6) Mean ± SEM / ΔLog10 CFU/g of catheter from (D 1) Mean ± SEM: 5.5-day treatment (D1-D6); for Log10 CFU/g of catheter (D 6) Mean ± SEM / ΔLog10 CFU/g of catheter from (D 1) Mean ± SEM / Log10 CFU/g of catheter (D 8) Mean ± SEM / ΔLog10 CFU/g of catheter from (D 3) Mean ± SEM: BALB/c mice; for Log10 CFU/g of catheter (D 6) Mean ± SEM / Log10 CFU/g of catheter (D 8) Mean ± SEM: doses as in Table 2; for ΔLog10 CFU/g of catheter from (D 1) Mean ± SEM: change from baseline D 1; for CR (%) cure rate / mean reduction of the initial MRSA load: 5.5-day treatment; for CR (%) cure rate: percentage of mice without catheter-associated bacteria; for Log10 CFU/g of catheter (D 8) Mean ± SEM / ΔLog10 CFU/g of catheter from (D 3) Mean ± SEM: 5.5-day treatment (D3-D8); for ΔLog10 CFU/g of catheter from (D 3) Mean ± SEM: change from baseline D 3; for mean reduction of the initial MRSA load: given as positive reduction
Protocol: Two experimental settings were used in this study to evaluate the treatment efficacies against early (24h) and/or mature (72h) MRSA catheter formed biofilms. Briefly, mice were anaesthetised by an IP injection of about 120 μl a mix of ketamine (50 mg/kg) and xylazine (10 mg/kg) (4 mL ketamine+2 mL xylazine+10 mL saline). Flank on the right side was shaved and then disinfected by 3 consecutive applications of betadine. A cutaneous and then subcutaneous (SC) incisions of 0.2 cm were made under sterile conditions and a 1 cm segment of polyurethane catheter (Ref. No. ES-04730 Arrow international) cut into 2 longitudinal fragments was inserted SC (into the incision and then pushed further under the skin, about 2 cm away from the incision). The inoculation was done simultaneously by placing 50 μl of the bacterial culture onto the catheter (10^6 CFU of ATCC 43300 MRSA strain). The incision was stitched up and disinfected. The day of the infection was referred to as Day0 (D0). To ensure that the study was conducted in sterile conditions from the start to the end of the experiment, non-infected mice (sentinel group) were included. Treatments started either on D1 or D3 post infection, corresponding to early (24h) or more mature (72h) catheter formed biofilms, respectively, and lasted for 5.5 days (D1-D6) or (D3-D8). In both 24 h and 72h biofilm settings, two groups of infected non-treated animals (Vehicle controls) were evaluated for bacterial counts: at baseline (24h or D1 [for 24-h biofilm] and 72h or D3 [for 72-h biofilm] post infection, i.e. time points corresponding to treatments initiations) and at the termination of treatment duration (D6 [for 24-h biofilm] and D8 [for 72-h biofilm] post infection). Post treatment CFUs were counted on D6 or D8 and results were expressed as Log10 CFU/g of catheter (Mean±SEM). The limit of detection was determined as being 1 Log10 CFU/g of catheter. Changes of CFU/g of catheter (Δ Log10) from the baseline (D1 or D3 for 24-h and 72-h biofilm, respectively) and cure rates (corresponding to the percentage of mice without catheter-associated bacteria within a given treatment group) were also calculated. In vivo induction of antibiotic-resistant bacteria was analysed for all tested antibiotics.
Antibiotics doses were selected according to the effective doses in animals, which approximated the therapeutic human equivalent doses (HED) (Table 1).
Mice received antibiotics on D1, D2, D3, D4, D5 and D6 (only one administration at D6) or D3, D4, D5, D6, D7 and D8 (only one administration at D8). All antibiotics were administered BID IP, except Debio 1450 BES and Vancomycin, which were respectively given PO and SC. Daptomycin was tested as a once daily regimen to avoid tolerability issues. The antibiotics daily dosing was performed with a 10-12 hours interval between the two administrations. For combination therapy, antibiotics were administered simultaneously every 10-12 hours (the time required between the injection of the first antibiotic and the injection of the second antibiotic was less than 30 seconds per mouse).
In each sub-study, animals were randomly assigned to the antibiotic therapies or vehicle controls groups. Dose volumes were calculated according to individual body weight of each animal.
After blood collection, animals were sacrificed by cervical dislocation following anaesthesia. Two fragments of catheter per mouse were collected and were used for bacterial enumeration after sonication. Each fragment of catheter was individually washed under aseptic conditions in an Eppendorf tube (3 successive washing steps with 300 μl sterile saline). After the last wash, the catheter was suspended in 1 mL sterile saline, put in an ultrasonic bath (Advantage Lab) for 3 minutes at room temperature before being vigorously vortexed in order to detach all adherent bacteria from the catheter. Several successive dilutions of this suspension (undiluted, 10-2, […]) were cultured onto Chapman agar plates for 48 h at 37° C. […]

| Compound | Log10 CFU/g of catheter (D 6) Mean ± SEM (Biofilm (24 h)) | ΔLog10 CFU/g of catheter from (D 1) Mean ± SEM (Biofilm (24 h)) | CR (%) cure rate (Biofilm (24 h)) | Log10 CFU/g of catheter (D 8) Mean ± SEM (Biofilm (72 h)) | ΔLog10 CFU/g of catheter from (D 3) Mean ± SEM (Biofilm (72 h)) | CR (%) cure rate (Biofilm (72 h)) | mean reduction of the initial MRSA load (24 h biofilm) | mean reduction of the initial MRSA load (72 h biofilm) |
| --- | --- | --- | --- | --- | --- | --- | --- | --- |
| CCCCCCCCCC(=O)N[C@@H](Cc1c[nH]c2ccccc12)C(=O)N[C@H](CC(N)=O)C(=O)N[C@@H](CC(=O)O)C(=O)N[C@@H]1C(=O)NCC(=O)N[C@@H](CCCN)C(=O)N[C@@H](CC(=O)O)C(=O)N[C@H](C)C(=O)N[C@@H](CC(=O)O)C(=O)NCC(=O)N[C@H](CO)C(=O)N[C@@H]([C@H](C)CC(=O)O)C(=O)N[C@@H](CC(=O)c2ccccc2N)C(=O)O[C@@H]1C [Daptomycin] | 3.02 ± 0.110 Log10 CFU/g of catheter | −3.64 ± 0.110 Log10 CFU/g of catheter | 25% | 5.42 ± 0.104 Log10 CFU/g of catheter | −1.37 ± 0.104 Log10 CFU/g of catheter | 0% |  |  |
| Cc1c(CN(C)C(=O)/C=C/c2cnc3c(c2)CCC(=O)N3COP(=O)(O)O)oc2ccccc12 [Debio 1450, {6-[(1E)-3-{methyl [(3-methyl-1-benzofuran-2-yl)methyl]amino}-3-oxoprop-1-en-1-yl]-2-oxo-3,4-dihydro-1,8-naphthyridin-1 (2H)-yl} methyl dihydrogen phosphate] | 4.31 ± 0.109 Log10 CFU/g of catheter | −2.35 ± 0.109 Log10 CFU/g of catheter | 8% | 5.75 ± 0.069 Log10 CFU/g of catheter | −1.03 ± 0.069 Log10 CFU/g of catheter | 0% |  |  |
| CO[C@H]1/C=C/O[C@@]2(C)Oc3c(C)c(O)c4c(O)c(c(/C=N/N5CCN(C)CC5)c(O)c4c3C2=O)NC(=O)/C(C)=C\C=C\[C@H](C)[C@H](O)[C@@H](C)[C@@H](O)[C@@H](C)[C@H](OC(C)=O)[C@@H]1C [Rifampicin] | 2.50 ± 0.072 Log10 CFU/g of catheter | −4.17 ± 0.072 Log10 CFU/g of catheter | 39% | 3.80 ± 0.113 Log10 CFU/g of catheter | −2.98 ± 0.113 Log10 CFU/g of catheter | 8% | 4.17±0.072 Log10 CFU/g of catheter | 2.98±0.113 Log10 CFU/g of catheter |
